Data set [1] concerns H23-KDLKB1 and H23-LKB1 NSCLC cells. Nature of the data set: Immunoblot of BiP and CHOP in H23-LKB1 and H23-KDLKB1 cells. The data set is classed as cell-based, human. The conditions noted are these: 18 h; or bortezomib (40 nM). Here is the method:
(§1) Cells were washed once with ice-cold PBS and incubated on ice for 30 min with a lysis buffer containing 10 mM Tris-HCl, 150 mM NaCl, 0.1% SDS and 1% IGEPAL (Sigma) to which a protease inhibitor cocktail (Sigma) and two phosphatase cocktails I and II (Sigma) were added immediately before use. Lysates were transferred to tubes and insoluble material was pelleted by centrifugation. For immunoblotting, 50-100 μg of total protein lysates were separated by SDS-PAGE and transferred to nitrocellulose. Blots were blocked in 5% milk/Tris buffered saline/0.1% TWEEN® 20 (polyoxyethylenesorbitan monolaurate) (TBST) and primary antibodies were diluted in 5% Bovine Serum Albumin (Sigma)/TBST and incubated overnight at 4° C. Blots were developed with ECL plus (GE) and visualized on a Kodak Image station.
(Immunoblotting shows a protein as a band on a membrane.)

Data set [2] deals with H23-KDLKB1 and H23-LKB1 cells. Description: Clonogenic survival of H23-LKB1 and H23-KDLKB1 cells. The data set is classed as cell-based, human. Particulars: 24 h treatment, colonies after 14 days. Here is the method: (§2) Clonogenic survival assay were performed in 6 well dishes. Briefly, 300-500 cells were plated per well and allowed to attach overnight. Drugs were diluted fresh into media and cells were treated for 24 hours. Drug containing media was removed and replaced with fresh media. After 14 days, cells were fixed in 10% Methanol/10% Acetic Acid and stained with 0.5% crystal violet. After washing in ddH2O, plates were allowed to dry and colonies of 50 cells or more were counted. The surviving fraction was calculated according to methods described by Franken, et al.
as §2, with “200 of indicated” for “300-500”, “Were indicated cells were pre-treated with 125 ng/ml of cyclohexamide (CHX) for one hour. Indicated drugs” for “Drugs”, “h, at which time the drug” for “hours. Drug”, “Franken” for “Franken,”, “al. [Clonogenic assay of cells in vitro, NAT. PROT. 1 (5) (2006) 2315-2319].” for “al.”

Data set [3] deals with H838-KDLKB1 and H838-LKB1 cells. Description: Flow cytometry of ROS levels (CellROX staining). It is filed as cell-based, human. The conditions noted are these: CellROX FACS, 12 h; 2DG 10 mM, Tm 1.25 μg/ml, BFA 30 ng/ml; baseline difference 1.4-fold. The procedure: To analyze levels of reactive oxygen species (ROS), 1×10^6 H838-KDLKB1 and H838-LKB1 cells were plated and treated with the indicated drugs. Cells were then stained with 0.5 1M CellRox™ for 30 min at 37° C., collected by trypsinization and washed with PBS. Following fixation with 2% Paraformaldehyde/PBS for 20 min, cells were brought to a final volume of 500 ll in PBS. CellRox™ staining of ROS was assessed using the Accuri C6 Flow Cytometer (BD Biosciences, San Jose, Calif., USA) with the threshold set at 80,000. A total of 30,000 events were collected per sample and ROS staining intensity determined using FCS Express 4 Flow Cytometer software. Background events were gated out using unstained control. Histogram plots were overlaid and histogram subtraction was performed by subtracting the integral of the stained control from the treated sample.
A general note: In flow cytometry, cells or beads pass a laser one at a time.

Data set [4] has the same test system. Nature of the data set: ATP measurement/cell viability (CellTiter-Glo), H838. The data set is classed as cell-based, human. Particulars: 48 h; 2DG 10 mM, Tm 1.25 μg/ml, BFA 30 ng/ml; p<0.005. The procedure:
(§3) 500 H838 or A427 cells stably expressing either LKB1 or KDLKB1 were plated in 96 well plates. The following day, cells were dosed with the indicated treatments for 48 h. Cellular ATP levels were assessed using the CellTiter-Glo Luminescent Cell Viability Assay substrate (Promega) according to manufacturer's instructions. Luminescence was read using the DTX 880 Multimode Detector. Cellular ATP/cell viability was calculated relative to vehicle treated control.
Background: ATP-based viability assays read luminescence as a measure of living cells.

Data set [5] has as its system A427-KDLKB1 and A427-LKB1 cells. Description: ATP measurement/cell viability (CellTiter-Glo), A427. It is filed as cell-based, human. The conditions noted are these: 48 h; 2DG 10 mM, Tm 1.25 μg/ml, BFA 30 ng/ml; p<0.005. Here is the method:
as §3

In another data set the test system is H838-KDLKB1 cells. Nature of the data set: Clonogenic survival of H838-LKB1 and H838-KDLKB1 cells. It is filed as cell-based, human. The conditions noted are these: for Clonogenic cell survival of H838-KDLKB1 cells: 24 h, 2DG 10 mM, Tm 1.25 μg/ml, BFA 30 ng/ml. Here is the method: as §2, with “200 of indicated” for “300-500”, “Were indicated cells were pre-treated with 125 ng/ml of cyclohexamide (CHX) for one hour. Indicated drugs” for “Drugs”, “h, at which time the drug” for “hours. Drug”, “Franken” for “Franken,”, “al. [Clonogenic assay of cells in vitro, NAT. PROT. 1 (5) (2006) 2315-2319].” for “al.”

Data set [6] concerns H838-KDLKB1 and H838-LKB1 cells. Nature of the data set: Immunoblot of ER stress markers in H838-LKB1 and H838-KDLKB1 cells. It is filed as cell-based, human. Particulars: 12 h; 2DG 10 mM, Tm 1.25 ug/ml, BFA 30 ng/ml. The procedure: as §1
The subject of data set [7] is H23-LKB1 and H23-KDLKB1 cells. Nature of the data set: Caspase 3/7 activity assay. It is filed as cell-based, human. The conditions noted are these: 5 ug/ml, 24 hours. Here is the method: H23-LKB1 and H23-KDLKB1 cell were plated as described previously and treated for 24 hours with tunicamycin (5 ug/ml) or vehicle (DMSO). Activity of Caspases 3 and 7 were determined using a Promega Caspase-Glo 3/7 kit and data analyzed as described previously.

Data set [8] can be described thus: Chronic dosing tolerability in vivo.
A further data set has as its system AMPK, H2009 LA cells. Description: Immunoblot of BiP and CHOP in H2009 cells with AMPK inhibitor before 2DG. The data set is classed as cell-based, human. On the set-up: dose or concentration left out as unconfirmed. Particulars: H2009 cells treated with Compound C. Here is the method:
Cells were incubated on ice for 30 minutes with a lysis buffer containing 10 mM Tris-HCL, 150 mM NaCl, 0.1% SDS and 1% IGEPAL (Sigma). Immediately before use, a protease inhibitor cocktail (Sigma) and two phosphatase cocktails I and II (Sigma) were added to the lysis buffer. Lysates were transferred to tubes and insoluble material was pelleted by centrifugation. Nuclear protein fractions were isolated using a NE-PER protein extraction kit (ThermoFisher) according to manufacturer's instructions. Protein concentration was determined using the Bio-Rad DC protein kit. For immunoblotting, 50-100 ug of total protein lysates was separated by SDS-PAGE and transferred to nitrocellulose. Blots were blocked in 5% milk/Tris buffered saline/0.1% TWEEN® 20 (polyoxyethylenesorbitan monolaurate) (TBST) and primary antibodies were diluted in 5% Bovine Serum Albumin (Sigma)/TBST and incubated overnight at 4° C. Blots were developed with ECL plus (GE) and visualized on a Kodak Image station.

These results are taken from patent publication US10684290B2, “LKB1 related diagnostics and treatments of cancer” (Dignity Health, priority 2014, dated 2020).

Regarding `CC(C)C[C@H](NC(=O)[C@H](Cc1ccccc1)NC(=O)c1cnccn1)B(O)O` [bortezomib], in data set [1], the “BiP expression in H23-KDLKB1 compared to H23 cells with reconstituted LKB1” value turned out to be 9 fold decrease and the “CHOP expression in H23-KDLKB1 compared to H23 cells with reconstituted LKB1” value is 1.6 fold decrease. Besides, in data set [2], the “Clonogenic survival / cytotoxicity in H23-KDLKB1 compared to H23-LKB1” value is reported as “reduced the survival of H23-KDLKB1 cells in a dose dependent manner”.

For the compound `Cc1ccc(-c2cc(C(F)(F)F)nn2-c2ccc(S(N)(=O)=O)cc2)cc1` [celecoxib], in [1], the “BiP expression in H23-KDLKB1 compared to H23 cells with reconstituted LKB1” value worked out at 1.6 fold decrease and the “CHOP expression in H23-KDLKB1 compared to H23 cells with reconstituted LKB1” value stood at 1.3 fold decrease. In addition, the “Clonogenic survival / cytotoxicity in H23-KDLKB1 compared to H23-LKB1” value in data set [2] was “reduced the survival of H23-KDLKB1 cells in a dose dependent manner”.

In the case of `C[C@H]1CCC/C=C/[C@@H]2C[C@H](O)C[C@H]2[C@H](O)/C=C/C(=O)O1` [BFA, brefeldin A], in data set [3], the “ROS levels in H838-KDLKB1, increase in intensity over H838-LKB1” value worked out at 1.2 fold. Moreover, the “Cellular ATP in H838-KDLKB1 compared to H838 re-expressing LKB1” value in data set [4] is “reduced ATP”. In data set [5], the “Cellular ATP in A427-KDLKB1 compared to A427 re-expressing LKB1” value is given as “reduced ATP”. The “Clonogenic cell survival of H838-KDLKB1 cells” value with H838-KDLKB1 cells is listed as “reduced cell survival”. Further, the “Phosphorylated eIF2a in H838-KDLKB1 compared to H838-LKB1 cells” value in data set [6] is given as “increased levels of phosphorylated eIF2a”.

For tunicamycin [Tm], the “ROS levels in H838-KDLKB1, increase in intensity over H838-LKB1” value in data set [3] turned out to be 1.67 fold. Moreover, the “Clonogenic survival / cytotoxicity in H23-KDLKB1 compared to H23-LKB1” value in [2] is “increased cytotoxicity”. For the same compound, the “Cellular ATP in H838-KDLKB1 compared to H838 re-expressing LKB1” value in [4] is listed as “reduced ATP”. In data set [5], the “Cellular ATP in A427-KDLKB1 compared to A427 re-expressing LKB1” value is listed as “reduced ATP”. In addition, in the data set on H838-KDLKB1 cells, the “Clonogenic cell survival of H838-KDLKB1 cells” value is reported as “reduced cell survival”. In addition, in data set [7], the “Activity of Caspases 3 and 7 (apoptosis) in H23-KDLKB1 versus H23-LKB1” value was “increased levels of Caspase activity”. Moreover, the “Phosphorylated eIF2a in H838-KDLKB1 compared to H838-LKB1 cells” value in [6] is reported as “increased levels of phosphorylated eIF2a”. Also, the “Tolerability of chronic dosing” value in data set [8] is recorded as “poorly tolerated”.

On to `c1cc(-c2cnn3cc(-c4ccc(OCCN5CCCCC5)cc4)cnc23)ccn1` [compound C], for which the “Expression of BiP and CHOP in response to 2DG” value in the data set on AMPK, H2009 LA cells was “prevented expression of both BiP and CHOP”.

With `C[C@@H]1C[C@@H]([C@H](O)CC2CC(=O)NC(=O)C2)C(=O)[C@@H](C)C1` [CHX, Cycloheximide], the “Effect of added CHX on 2DG, BFA and Tm cytotoxicity in H838-KDLKB1 cells” value with H838-KDLKB1 cells (125 ng/ml CHX pre-treatment one hour, compared to 2DG, BFA or Tm alone, p<0.05) is “ameliorate 2DG, BFA and Tm cytotoxicity”.
